ChEMBL document CHEMBL3885861, “Open TG-GATES”

Species: Rattus norvegicus
Test: Open TG-GATES - Regimen: Single
Assay type: toxicity, organism-based, Sprague-Dawley
Parameters: regimen Single, gender Male, age 6 weeks
Settings: in vivo, po, route gavage; for gamma-GTP / ALP / ALT / AST / BUN / CRE / Ca / DBIL / GLC / K / LDH / Na / PL / RALB / TBIL / TC / TG / TP / IP: tissue Plasma; for APTT / Bas / Eos / Fbg / Hb / Ht / Lym / MCH / MCHC / MCV / Mono / Neu / PT / RBC / Ret / WBC / Plat: tissue Blood; for KIDNEY_L / KIDNEY_R / KIDNEY_TOTAL: tissue Kidney; for LIVER: tissue Liver
[1] = 100 mg/kg, 3 h, dose level High
[2] = 100 mg/kg, 6 h, dose level High
[3] = 100 mg/kg, 9 h, dose level High
[4] = 100 mg/kg, 24 h, dose level High

## CSc1ccc2c(c1)N(CCC1CCCCN1C)c1ccccc1S2 (stereo not drawn) [THIORIDAZINE]
30 mg/kg, 24 h, dose level Middle
  gamma-GTP: 1 IU/L
[1]
  TERMINAL_BW: 217.7 g
  APTT: 16.7 s
  Bas: 0%
  Eos: 1%
  Fbg: 205.2 mg/dL
  Hb: 12.6 g/dL
  Ht: 38.2%
  Lym: 70.2%
  MCH: 21.9 pg
  MCHC: 33.1%
  MCV: 66.3 fL
  Mono: 11%
  Neu: 17.8%
  PT: 12.2 s
  RBC: 576.8 x10_4/ul
  Ret: 8.6%
  WBC: 56.2 x10_2/uL
  KIDNEY_L: 1 g
  KIDNEY_R: 1 g
  KIDNEY_TOTAL: 2 g
  LIVER: 10.5 g
  ALP: 990.6 IU/L
  ALT: 41.8 IU/L
  AST: 70.2 IU/L
  BUN: 11.2 mg/dL
  CRE: 0.6 mg/dL
  Ca: 11 mg/dL
  DBIL: 0.018 mg/dL
  GLC: 215 mg/dL
  K: 4.2 meq/L
  LDH: 163.8 IU/L
  Na: 139.8 meq/L
  PL: 138.2 mg/dL
  RALB: 3.7 g/dL
  TBIL: 0.3 mg/dL
  TC: 80.2 mg/dL
  TG: 34.4 mg/dL
  TP: 5.3 g/dL
  gamma-GTP: 1 IU/L
[2]
  TERMINAL_BW: 215 g
  APTT: 16.9 s
  Bas: 0%
  Eos: 0.6%
  Fbg: 204.6 mg/dL
  Hb: 12.5 g/dL
  Ht: 37.7%
  Lym: 71.6%
  MCH: 21.6 pg
  MCHC: 33.1%
  MCV: 65.1 fL
  Mono: 8.6%
  Neu: 18.6%
  PT: 12.2 s
  Plat: 106.5 x10_4/uL
  RBC: 579 x10_4/ul
  Ret: 7.8%
  WBC: 84.2 x10_2/uL
  KIDNEY_L: 1 g
  KIDNEY_R: 1 g
  KIDNEY_TOTAL: 2 g
  LIVER: 9.4 g
  ALP: 868.4 IU/L
  ALT: 30.8 IU/L
  AST: 63.8 IU/L
  BUN: 8.2 mg/dL
  CRE: 0.5 mg/dL
  Ca: 10.5 mg/dL
  DBIL: 0.016 mg/dL
  GLC: 211 mg/dL
  IP: 10.6 mg/dL
  K: 4.5 meq/L
  LDH: 166.6 IU/L
  Na: 139.6 meq/L
  PL: 135.2 mg/dL
  RALB: 3.7 g/dL
  TBIL: 0.4 mg/dL
  TC: 77.8 mg/dL
  TG: 19.6 mg/dL
  TP: 5.4 g/dL
  gamma-GTP: 2.6 IU/L
[3]
  TERMINAL_BW: 210.8 g
  APTT: 16.3 s
  Bas: 0%
  Eos: 0.4%
  Fbg: 215.6 mg/dL
  Hb: 12.5 g/dL
  Ht: 38.3%
  Lym: 76.8%
  MCH: 21 pg
  MCHC: 32.8%
  MCV: 64.1 fL
  Mono: 7.2%
  Neu: 15.6%
  PT: 12.1 s
  Plat: 110.2 x10_4/uL
  RBC: 598.4 x10_4/ul
  Ret: 7.3%
  WBC: 80.7 x10_2/uL
  KIDNEY_L: 1 g
  KIDNEY_R: 1 g
  KIDNEY_TOTAL: 2 g
  LIVER: 9.4 g
  ALP: 850.6 IU/L
  ALT: 31.6 IU/L
  AST: 61.2 IU/L
  BUN: 9.6 mg/dL
  CRE: 0.5 mg/dL
  Ca: 10.6 mg/dL
  DBIL: 0.018 mg/dL
  GLC: 223.4 mg/dL
  IP: 9.8 mg/dL
  K: 4.2 meq/L
  LDH: 144.8 IU/L
  Na: 141.4 meq/L
  PL: 155.2 mg/dL
  RALB: 3.7 g/dL
  TBIL: 0.4 mg/dL
  TC: 84 mg/dL
  TG: 28.4 mg/dL
  TP: 5.4 g/dL
  gamma-GTP: 1.2 IU/L
[4]
  TERMINAL_BW: 217.8 g
  APTT: 16.1 s
  Bas: 0%
  Eos: 1%
  Fbg: 209 mg/dL
  Hb: 13.5 g/dL
  Ht: 40.5%
  Lym: 84.4%
  MCH: 21.5 pg
  MCHC: 33.4%
  MCV: 64.6 fL
  Mono: 4.6%
  Neu: 10%
  PT: 12.2 s
  Plat: 125.1 x10_4/uL
  RBC: 628 x10_4/ul
  Ret: 7.3%
  WBC: 102 x10_2/uL
  KIDNEY_L: 1 g
  KIDNEY_R: 1 g
  KIDNEY_TOTAL: 2.1 g
  LIVER: 10.9 g
  ALP: 952.2 IU/L
  ALT: 35.4 IU/L
  AST: 62.4 IU/L
  BUN: 21.4 mg/dL
  CRE: 0.5 mg/dL
  Ca: 11.2 mg/dL
  DBIL: 0.022 mg/dL
  GLC: 210.8 mg/dL
  IP: 9.8 mg/dL
  K: 4.5 meq/L
  LDH: 166.8 IU/L
  Na: 140.4 meq/L
  PL: 172.6 mg/dL
  RALB: 4.2 g/dL
  TBIL: 0.3 mg/dL
  TC: 91.4 mg/dL
  TG: 97.8 mg/dL
  TP: 6.1 g/dL
  gamma-GTP: 1.4 IU/L
